# Measured values taken from ChEMBL document CHEMBL1201862, “PubChem BioAssay data set” (2004).
# Several values for one entry are separate records, joined by “and”; a condition that tells them apart may be missing. Identical values can stand only once. Activity calls are given as the source filed them.
# Key:
# [1] = biological target: T1, Polyadenylate-binding protein 1 (Homo sapiens, UniProt P11940); assay: PABP inhibition in translation initiation, SAR follow-up (AID 435018); type: functional
# [2] = biological target: T1, Polyadenylate-binding protein 1; assay: PABP poly(A) RNA binding inhibitors, primary screen, biochemical, fluorescence polarization, uHTS (AID 2014)
# [3] = biological target: T2, Eukaryotic translation initiation factor 4H (Homo sapiens, UniProt Q15056); assay: eIF4H inhibition in translation initiation, SAR follow-up (AID 435011); type: functional
# [4] = biological target: T2, Eukaryotic translation initiation factor 4H; assay: human eIF4H binding inhibitors, primary screen, translation initiation inhibitor project, biochemical, uHTS, fluorescence polarization (AID 2012)
# [5] = biological target: T3, G-protein coupled receptor 35 (Homo sapiens, UniProt Q9HC97); assay: SAR Analysis for the identification of Selective Antagonists of ERK1/2 Activity in GPR35-Overexpressing U2OS Cells - Set 2. [Related pubchem assays (depositor defined):AID2058, AID2079]; type: functional, cell-based
# [6] = biological target: G-protein coupled receptor 55 (Homo sapiens, UniProt Q9Y2T6); assay: SAR Analysis of Selective Antagonists of GPR55 using an Image-Based Assay - Set 3. [Related pubchem assays (depositor defined):AID2058, AID2079]; type: functional
# [7] = biological target: T3, G-protein coupled receptor 35; assay: SAR analysis of Antagonists of the GPR35 Receptor using an Image-Based Assay - Set 5. [Related pubchem assays (depositor defined):AID2058, AID2079]; type: functional
# [8] = tested on: Vero; assay: West Nile virus antiviral activity, cell-based, CPE readout (AID 1621); type: functional; conditions: Chlorocebus sabaeus
# [9] = tested on: Vero; assay: West Nile virus CPE inhibition, SAR follow-up, cell-based, synthesized analogs (AID 2238); type: functional; conditions: Chlorocebus sabaeus
# [10] = A Cell Based Assay for the Identification of Probe candidate Compounds with Anti- Venezuelan Equine Encephalitis virus. [Related pubchem assays: 2409, 2419, 1621, 2238, 2405, 2024, 2065, 2402, 2414, 1635, 1650, 2244 ]; type: functional
# [11] = tested on: Vero; assay: cytotoxicity of synthesized analogs in Vero 76, SAR follow-up, cytotoxicity control for West Nile virus antiviral project, Vero 76 cells (AID 2414); type: functional, Chlorocebus sabaeus
# [12] = tested on: Vero; assay: Vero E6 cell cytotoxicity, SAR follow-up, cytotoxicity control for West Nile virus antiviral project, synthesized analogs (AID 2244); type: functional; conditions: Chlorocebus sabaeus
# [13] = tested on: Vero; assay: West Nile virus cytopathic effect inhibition, cell-based (AID 2419); type: functional; conditions: Chlorocebus sabaeus
# [14] = tested on: Vero; assay: cytotoxicity of synthesized analogs in Vero cells, SAR follow-up, cytotoxicity control for West Nile virus antiviral project, cell-based, set II (AID 2402); type: functional, Chlorocebus sabaeus
# [15] = biological target: T4, Histone-lysine N-methyltransferase NSD2 (Homo sapiens, UniProt O96028); type: biochemical
# T4 sequence (O96028 whole entry): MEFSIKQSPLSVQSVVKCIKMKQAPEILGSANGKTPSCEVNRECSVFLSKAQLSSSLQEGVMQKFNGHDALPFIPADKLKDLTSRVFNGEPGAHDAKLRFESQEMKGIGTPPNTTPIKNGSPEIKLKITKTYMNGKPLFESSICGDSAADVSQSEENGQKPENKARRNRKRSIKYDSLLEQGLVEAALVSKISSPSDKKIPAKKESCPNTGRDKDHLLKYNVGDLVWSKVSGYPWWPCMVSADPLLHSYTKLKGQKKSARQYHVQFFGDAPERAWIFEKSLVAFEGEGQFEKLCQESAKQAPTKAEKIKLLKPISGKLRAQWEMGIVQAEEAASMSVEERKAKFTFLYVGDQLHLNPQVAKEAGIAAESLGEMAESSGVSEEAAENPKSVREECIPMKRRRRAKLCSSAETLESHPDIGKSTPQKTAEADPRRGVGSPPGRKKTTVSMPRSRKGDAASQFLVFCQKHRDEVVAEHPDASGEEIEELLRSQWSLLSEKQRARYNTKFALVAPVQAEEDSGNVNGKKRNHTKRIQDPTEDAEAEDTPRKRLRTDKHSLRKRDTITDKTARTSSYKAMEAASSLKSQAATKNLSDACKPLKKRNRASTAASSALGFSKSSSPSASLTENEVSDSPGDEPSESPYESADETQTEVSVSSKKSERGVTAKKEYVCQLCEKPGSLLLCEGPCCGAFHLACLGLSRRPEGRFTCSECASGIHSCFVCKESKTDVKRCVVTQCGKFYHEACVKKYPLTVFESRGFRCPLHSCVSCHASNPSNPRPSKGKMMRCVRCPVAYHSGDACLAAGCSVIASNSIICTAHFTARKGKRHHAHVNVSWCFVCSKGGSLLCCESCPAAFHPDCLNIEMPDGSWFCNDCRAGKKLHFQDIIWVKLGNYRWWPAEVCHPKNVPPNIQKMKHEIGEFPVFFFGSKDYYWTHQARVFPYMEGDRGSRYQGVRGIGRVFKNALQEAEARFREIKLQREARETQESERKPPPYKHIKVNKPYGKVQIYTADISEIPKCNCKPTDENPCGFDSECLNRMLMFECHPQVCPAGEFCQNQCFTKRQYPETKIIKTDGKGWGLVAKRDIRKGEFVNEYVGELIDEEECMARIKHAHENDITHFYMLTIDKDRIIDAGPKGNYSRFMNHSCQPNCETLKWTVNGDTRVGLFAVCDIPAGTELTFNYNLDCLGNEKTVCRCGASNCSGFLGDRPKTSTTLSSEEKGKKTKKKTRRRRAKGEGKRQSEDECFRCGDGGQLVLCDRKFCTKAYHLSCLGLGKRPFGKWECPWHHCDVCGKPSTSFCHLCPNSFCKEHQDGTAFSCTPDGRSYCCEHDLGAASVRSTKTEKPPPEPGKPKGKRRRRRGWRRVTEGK
# [16] = biological target: Heat shock protein HSP 90-alpha (Homo sapiens, UniProt P07900); type: functional, organism-based
# [17] = biological target: Botulinum neurotoxin type F (Clostridium botulinum, UniProt P30996); assay: High-throughput multiplex microsphere dose response for inhibitors of toxin protease, specifically Botulinum neurotoxin light chain F protease, compounds from Cherry Pick 02.; type: functional; conditions: read-out: EC50_MICROM
# [18] = biological target: Prothrombin (Bos taurus, UniProt P00735); assay: thrombin inhibition, dose response, biochemical, fluorescence polarization, uHTS hits (AID 602369); type: functional
# [19] = biological target: T5, COUP transcription factor 2 (Homo sapiens, UniProt P24468); assay: Luminescence-based cell-based high throughput dose response assay to identify inhibitors of COUP-TFII (NR2F2).; type: functional;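 further: HEK293 cells transiently cotransfected with COUP-TFII expression vector and reporter; luciferase reporter luminescence driven by COUP-TFII from the pX2-168 reporter plasmid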
# T5 sequence (P24468 whole entry): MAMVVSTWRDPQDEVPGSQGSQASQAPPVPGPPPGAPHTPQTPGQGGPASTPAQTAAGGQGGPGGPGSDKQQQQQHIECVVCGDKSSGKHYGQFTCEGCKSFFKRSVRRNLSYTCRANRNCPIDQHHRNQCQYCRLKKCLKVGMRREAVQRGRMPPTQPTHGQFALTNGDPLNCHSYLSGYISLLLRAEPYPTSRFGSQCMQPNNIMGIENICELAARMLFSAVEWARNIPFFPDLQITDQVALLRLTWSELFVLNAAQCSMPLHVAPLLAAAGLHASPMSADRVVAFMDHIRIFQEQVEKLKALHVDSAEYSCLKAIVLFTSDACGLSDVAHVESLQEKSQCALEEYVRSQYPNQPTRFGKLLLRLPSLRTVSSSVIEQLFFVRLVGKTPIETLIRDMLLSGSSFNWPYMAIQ
# [20] = biological target: Protein Tat (Human immunodeficiency virus type 1 group M subtype B (isolate HXB2)(HIV-1), UniProt P04608); type: functional;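 further: tat binding to TAR RNA read out by fluorescence polarization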
# [21] = biological target: Nonstructural protein 1 (Influenza A virus, UniProt Q194T2); type: functional, Influenza A virus (A/California/07/2009(H1N1))
# [22] = biological target: 72 kDa type IV collagenase (Homo sapiens, UniProt P08253); assay: Dose Response validation of uHTS RPN11 inhibitor hits using a MMP-2 Fluorescence assay.; type: functional
# [23] = biological target: Matrix metalloproteinase-14 (Homo sapiens, UniProt P50281); assay: Dose Response confirmation of uHTS hits for a small molecule inhibitors of MT1-MMP activation in a fluorescence assay set 1.; type: functional
# [24] = biological target: Cystic fibrosis transmembrane conductance regulator/Golgi-associated PDZ and coiled-coil motif-containing protein (Homo sapiens, UniProt P13569+Q9HD26); assay: CAL PDZ peptide-binding inhibitors, dose response, biochemical, fluorescence polarization, Cerulean-tagged CAL PDZ, cherry-picks (AID 504773)
# [25] = human group III sPLA2 inhibitors, dose response, biochemical, QFRET, IC50 (AID 743457);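 further: green fluorescence rise as the enzyme cleaves BODIPY PC-A2 in liposomes; potency for inhibition of the enzyme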
# [26] = biological target: 26S proteasome non-ATPase regulatory subunit 14 (Homo sapiens, UniProt O00487); assay: inhibition of proteasome subunit RPN11 – biochemical, fluorescence polarization, uHTS hits, confirmation (AID 602368); type: functional
# [27] = THP-1 cell cytotoxicity, dose response, cytotoxicity control for Vif-APOBEC3G degradation inhibitor project, THP-1 cells (AID 1117359); type: functional; conditions: Human immunodeficiency virus 1, THP-1
# [28] = biological target: Glutathione-S-transferase (Schistosoma japonicum, UniProt Q26513); assay: biotin-GST/anti-GST TR-FRET signal inhibitors, dose response, artefact control for Vif-APOBEC3G degradation inhibitor project, biochemical (AID 1117362); type: functional
# [29] = biological target: Glucose-6-phosphate 1-dehydrogenase (Homo sapiens, UniProt P11413); assay: human G6PD enzyme inhibitors, dose response, selectivity assay for P. falciparum G6PD inhibitor project, biochemical, fluorescence (AID 504792); type: functional
# [30] = biological target: Long-chain-fatty-acid--AMP ligase FadD28 (Mycobacterium tuberculosis, UniProt P9WQ59); assay: Fluorescence polarization aasay to screen for inhibitors that compete for the binding of FadD28 to a bisubstrate Measured in Biochemical System Using Plate Reader - 2147-01_Inhibitor_Dose_CherryPick_Activity.; type: functional, Mycobacterium tuberculosis H37Rv
# [31] = biological target: T6, SUMO-activating enzyme (Homo sapiens, UniProt Q9UBT2); assay: inhibitors of in vitro SUMOylation cascade, primary screen, biochemical, HTRF, uHTS (AID 2006); type: protein-complex assay
# [32] = biological target: T6, SUMO-activating enzyme; assay: SUMOylation inhibitor hit validation, confirmation, SUMOylation inhibitor project, biochemical, AlphaScreen (AID 2018); type: functional
# [33] = biological target: Eukaryotic translation initiation factor 4E (Mus musculus, UniProt P63073); assay: eIF4E–eIF4G protein interaction inhibitors, dose response, biochemical, TR-FRET (AID 855); type: functional;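 further: potency for disrupting eIF4E binding to eIF4GI seen as loss of FRET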
# [34] = biological target: T7, Tyrosine-protein phosphatase non-receptor type 7 (Homo sapiens, UniProt P35236); assay: Dose Response confirmation of compounds that inhibit HePTP. [Related pubchem assays (depositor defined):AID1059, AID1661, AID2085]; type: functional
# T7 sequence (P35236 whole entry): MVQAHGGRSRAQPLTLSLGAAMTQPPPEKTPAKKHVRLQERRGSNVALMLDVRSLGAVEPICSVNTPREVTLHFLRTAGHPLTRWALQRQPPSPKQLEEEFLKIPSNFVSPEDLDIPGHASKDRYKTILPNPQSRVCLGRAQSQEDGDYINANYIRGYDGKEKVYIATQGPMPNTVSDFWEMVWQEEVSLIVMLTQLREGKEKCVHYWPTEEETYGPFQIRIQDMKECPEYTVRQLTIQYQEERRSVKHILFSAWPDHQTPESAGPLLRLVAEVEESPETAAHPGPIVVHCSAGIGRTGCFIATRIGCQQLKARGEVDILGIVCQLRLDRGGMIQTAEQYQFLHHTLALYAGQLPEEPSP
# [35] = biological target: Dual specificity protein phosphatase 3 (Homo sapiens, UniProt P51452); assay: Dose Response Confirmation of compounds that inhibit VHR1 in Fluorescent Assay. [Related pubchem assays (depositor defined):AID1661, AID1878]; type: functional
# [36] = biological target: T7, Tyrosine-protein phosphatase non-receptor type 7; assay: redox-dependent HePTP inhibition, mechanism study, biochemical, fluorescence (AID 2068); type: functional
# T6 sequence (Q9UBE0 whole entry): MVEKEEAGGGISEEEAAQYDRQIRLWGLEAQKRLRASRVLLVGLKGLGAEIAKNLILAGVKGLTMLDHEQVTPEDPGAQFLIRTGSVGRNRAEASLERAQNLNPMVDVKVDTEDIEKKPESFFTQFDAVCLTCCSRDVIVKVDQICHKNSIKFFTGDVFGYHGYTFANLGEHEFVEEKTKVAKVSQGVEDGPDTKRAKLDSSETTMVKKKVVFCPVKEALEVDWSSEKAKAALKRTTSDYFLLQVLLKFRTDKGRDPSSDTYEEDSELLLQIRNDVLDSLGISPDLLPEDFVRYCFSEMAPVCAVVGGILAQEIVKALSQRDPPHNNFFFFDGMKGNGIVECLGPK
# T6 sequence (Q9UBT2 whole entry): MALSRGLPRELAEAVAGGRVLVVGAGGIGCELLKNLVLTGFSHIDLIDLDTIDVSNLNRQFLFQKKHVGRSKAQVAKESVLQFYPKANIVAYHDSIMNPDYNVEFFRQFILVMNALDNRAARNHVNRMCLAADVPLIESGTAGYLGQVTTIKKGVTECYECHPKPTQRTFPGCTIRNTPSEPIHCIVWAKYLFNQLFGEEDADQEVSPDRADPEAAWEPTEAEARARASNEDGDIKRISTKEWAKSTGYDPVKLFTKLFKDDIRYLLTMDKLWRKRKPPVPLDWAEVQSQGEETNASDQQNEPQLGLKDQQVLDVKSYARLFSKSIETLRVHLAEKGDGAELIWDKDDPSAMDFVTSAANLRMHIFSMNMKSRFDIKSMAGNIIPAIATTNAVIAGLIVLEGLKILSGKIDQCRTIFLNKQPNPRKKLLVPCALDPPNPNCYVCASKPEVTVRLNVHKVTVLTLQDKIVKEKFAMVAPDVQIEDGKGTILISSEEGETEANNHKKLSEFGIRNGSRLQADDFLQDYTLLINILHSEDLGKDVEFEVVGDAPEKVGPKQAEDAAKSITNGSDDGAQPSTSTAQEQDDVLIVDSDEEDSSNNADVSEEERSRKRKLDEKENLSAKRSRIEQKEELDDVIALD
# Chain of 72 kDa type IV collagenase (P08253 whole entry): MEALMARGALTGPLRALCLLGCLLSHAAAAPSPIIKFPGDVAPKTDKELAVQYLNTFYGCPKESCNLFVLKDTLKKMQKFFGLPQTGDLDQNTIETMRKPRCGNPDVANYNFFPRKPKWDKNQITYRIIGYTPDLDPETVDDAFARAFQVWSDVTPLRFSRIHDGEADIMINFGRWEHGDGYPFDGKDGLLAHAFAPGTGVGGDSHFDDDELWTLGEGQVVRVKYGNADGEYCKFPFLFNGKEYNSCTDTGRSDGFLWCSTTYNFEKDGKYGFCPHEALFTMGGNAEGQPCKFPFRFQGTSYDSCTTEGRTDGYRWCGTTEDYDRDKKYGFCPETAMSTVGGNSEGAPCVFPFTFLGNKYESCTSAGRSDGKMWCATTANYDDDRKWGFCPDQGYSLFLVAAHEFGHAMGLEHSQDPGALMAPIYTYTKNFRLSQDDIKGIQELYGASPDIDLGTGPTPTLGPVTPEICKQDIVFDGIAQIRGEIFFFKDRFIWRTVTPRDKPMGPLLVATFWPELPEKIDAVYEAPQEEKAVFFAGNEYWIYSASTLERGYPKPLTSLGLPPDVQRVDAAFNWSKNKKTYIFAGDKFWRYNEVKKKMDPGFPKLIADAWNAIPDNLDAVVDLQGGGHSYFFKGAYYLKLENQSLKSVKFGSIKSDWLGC
# T3 sequence (Q9HC97 whole entry): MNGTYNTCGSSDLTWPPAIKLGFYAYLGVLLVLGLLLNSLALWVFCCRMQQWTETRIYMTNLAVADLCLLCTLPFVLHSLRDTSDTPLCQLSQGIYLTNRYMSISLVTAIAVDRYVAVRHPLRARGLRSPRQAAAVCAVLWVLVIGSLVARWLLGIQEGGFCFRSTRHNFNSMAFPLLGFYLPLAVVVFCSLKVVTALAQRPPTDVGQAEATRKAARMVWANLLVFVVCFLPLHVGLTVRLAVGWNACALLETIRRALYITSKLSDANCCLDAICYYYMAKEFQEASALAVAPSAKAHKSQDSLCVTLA
# Chain of 26S proteasome non-ATPase regulatory subunit 14 (O00487 whole entry): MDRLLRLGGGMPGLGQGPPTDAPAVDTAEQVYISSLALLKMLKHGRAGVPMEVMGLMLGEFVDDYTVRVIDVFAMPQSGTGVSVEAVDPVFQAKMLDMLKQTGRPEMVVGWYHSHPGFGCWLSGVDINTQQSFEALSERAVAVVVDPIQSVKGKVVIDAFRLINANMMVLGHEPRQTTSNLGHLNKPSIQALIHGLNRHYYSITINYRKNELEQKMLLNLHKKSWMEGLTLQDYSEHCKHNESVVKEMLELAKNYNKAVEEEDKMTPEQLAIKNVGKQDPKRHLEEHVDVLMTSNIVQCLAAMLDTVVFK
# T1 sequence (P11940 whole entry): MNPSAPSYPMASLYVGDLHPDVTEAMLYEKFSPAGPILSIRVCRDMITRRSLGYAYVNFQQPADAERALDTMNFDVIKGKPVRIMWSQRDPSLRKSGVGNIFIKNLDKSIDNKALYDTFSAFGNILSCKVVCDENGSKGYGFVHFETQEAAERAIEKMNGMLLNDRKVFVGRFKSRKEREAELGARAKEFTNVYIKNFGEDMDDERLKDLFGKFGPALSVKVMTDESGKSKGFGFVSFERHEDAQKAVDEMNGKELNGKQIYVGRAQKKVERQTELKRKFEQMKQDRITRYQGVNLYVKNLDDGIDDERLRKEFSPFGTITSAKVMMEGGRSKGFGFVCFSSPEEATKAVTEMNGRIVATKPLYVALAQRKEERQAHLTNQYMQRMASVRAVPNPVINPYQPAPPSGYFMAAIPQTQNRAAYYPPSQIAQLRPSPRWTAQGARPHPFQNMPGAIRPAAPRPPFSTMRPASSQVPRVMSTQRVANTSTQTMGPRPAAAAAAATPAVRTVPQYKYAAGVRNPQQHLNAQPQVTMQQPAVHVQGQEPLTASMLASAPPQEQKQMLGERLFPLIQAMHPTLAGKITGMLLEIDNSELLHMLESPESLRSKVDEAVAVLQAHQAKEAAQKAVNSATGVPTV
# Chain of Cystic fibrosis transmembrane conductance regulator/Golgi-associated PDZ and coiled-coil motif-containing protein (P13569 whole entry, other chains not shown): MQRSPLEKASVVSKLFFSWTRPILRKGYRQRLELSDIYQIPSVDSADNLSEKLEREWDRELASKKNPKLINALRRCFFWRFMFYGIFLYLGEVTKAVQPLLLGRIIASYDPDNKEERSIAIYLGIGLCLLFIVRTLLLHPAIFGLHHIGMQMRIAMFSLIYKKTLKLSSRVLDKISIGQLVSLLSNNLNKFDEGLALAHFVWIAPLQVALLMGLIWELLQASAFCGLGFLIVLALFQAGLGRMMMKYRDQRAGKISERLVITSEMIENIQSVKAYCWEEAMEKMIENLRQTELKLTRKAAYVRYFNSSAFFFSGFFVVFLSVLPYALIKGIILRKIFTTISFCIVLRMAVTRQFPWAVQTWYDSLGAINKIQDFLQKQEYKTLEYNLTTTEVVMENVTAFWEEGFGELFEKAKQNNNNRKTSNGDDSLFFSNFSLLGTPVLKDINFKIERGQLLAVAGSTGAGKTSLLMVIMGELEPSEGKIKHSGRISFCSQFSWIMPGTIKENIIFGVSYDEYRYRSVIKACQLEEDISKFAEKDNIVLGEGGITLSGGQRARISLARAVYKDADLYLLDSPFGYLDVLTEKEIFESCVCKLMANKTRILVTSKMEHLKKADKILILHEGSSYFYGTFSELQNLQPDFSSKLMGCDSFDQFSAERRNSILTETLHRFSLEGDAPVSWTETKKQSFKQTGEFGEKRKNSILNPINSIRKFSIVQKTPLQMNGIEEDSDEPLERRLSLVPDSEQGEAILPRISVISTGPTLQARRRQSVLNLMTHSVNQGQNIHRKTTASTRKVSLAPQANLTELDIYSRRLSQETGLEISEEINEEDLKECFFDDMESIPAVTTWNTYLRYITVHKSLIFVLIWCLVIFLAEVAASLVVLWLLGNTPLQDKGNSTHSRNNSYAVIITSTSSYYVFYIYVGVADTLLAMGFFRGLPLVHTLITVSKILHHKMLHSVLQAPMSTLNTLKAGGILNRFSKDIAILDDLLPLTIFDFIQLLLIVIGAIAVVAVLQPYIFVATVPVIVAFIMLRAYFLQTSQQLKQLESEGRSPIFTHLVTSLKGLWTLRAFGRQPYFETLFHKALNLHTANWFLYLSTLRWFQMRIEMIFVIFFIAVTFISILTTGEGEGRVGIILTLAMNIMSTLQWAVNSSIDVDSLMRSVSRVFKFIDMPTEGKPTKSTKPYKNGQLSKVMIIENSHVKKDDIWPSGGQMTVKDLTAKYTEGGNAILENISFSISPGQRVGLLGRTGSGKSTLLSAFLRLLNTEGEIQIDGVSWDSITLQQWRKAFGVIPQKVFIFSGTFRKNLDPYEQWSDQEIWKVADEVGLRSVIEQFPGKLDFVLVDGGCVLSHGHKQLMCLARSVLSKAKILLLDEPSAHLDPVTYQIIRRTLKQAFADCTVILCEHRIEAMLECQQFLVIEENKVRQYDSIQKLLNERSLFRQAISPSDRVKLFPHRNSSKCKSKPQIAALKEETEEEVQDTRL
# Chain of Dual specificity protein phosphatase 3 (P51452 whole entry): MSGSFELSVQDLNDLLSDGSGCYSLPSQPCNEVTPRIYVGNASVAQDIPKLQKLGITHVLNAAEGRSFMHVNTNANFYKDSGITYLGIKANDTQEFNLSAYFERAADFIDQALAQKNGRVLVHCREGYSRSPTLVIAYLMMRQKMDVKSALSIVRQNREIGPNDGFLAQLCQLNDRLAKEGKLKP
# Chain of Protein Tat (P04608 whole entry): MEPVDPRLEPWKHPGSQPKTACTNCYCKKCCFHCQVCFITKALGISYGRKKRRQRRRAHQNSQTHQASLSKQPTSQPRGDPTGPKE
structure (smiles),measurement,setting,value
COc1ccc(OC)c(NC(=O)CSc2ccc(-c3ccco3)nn2)c1,IC50,[1],> 100 µM (inactive)
same,IC50,[2],93.4 µM (active)
same,IC50,[3],48.7 µM (active)
same,IC50,[4],16.1 µM (active)
COC(=O)c1cnn(-c2ccc(Cl)cc2)c1/C=N/NC(=S)Nc1ccccc1,IC50,[5],21.8 µM (inactive)
same,IC50,[6],> 32 µM (inactive)
same,IC50,[7],0.211 µM (active)
Brc1ccc2c(c1)CN1CCCC1=N2,IC50,[8],19.7 µM (active)
same,IC50,[9],38.9 µM (active)
same,IC50,[10],> 66.6 µM (active) and 60.3 µM (active)
same,CC50,[11],124 µM (active)
same,CC50,"[11]; Chlorocebus sabaeus, Vero",> 66.6 µM (active)
same,CC50,[12],> 40 µM (active)
same,IC50,[13],16.8 µM (active)
same,CC50,[14],197 µM (active)
same,CC50,"[14]; Chlorocebus sabaeus, Vero",> 100 µM (active)
COc1cc(N(C)C)ccc1C=c1c2ccccc2n2c1cc(-c1ccccc1)[n+]2C,AC50,[15],3.07 µM (active)
same,AC50,[16],7.6 µM (active)
same,EC50,[17],> 20 µM (inactive)
same,IC50,[18],11.8 µM (active)
same,IC50,[19],4.89 µM (active)
same,IC50,[20],> 100 µM (active)
same,IC50,[21],3.2 µM (active)
same,IC50,[22],> 100 µM (inactive)
same,IC50,[23],14.6 µM (active)
same,AC50,[24],39.9 µM (active)
same,IC50,[25],19.2 µM (inactive)
same,IC50,[26],24.9 µM (active)
same,CC50,[27],0.22 µM (active)
same,IC50,[28],3.69 µM (active)
same,IC50,[29],> 80 µM (inactive)
Cc1ccc(NC(=O)CN2C(=O)S/C(=C/c3ccc(O)c([N+](=O)[O-])c3)C2=O)cc1C,AC50,[30],7.6 µM (active)
same,IC50,[31],20.9 µM (active)
same,IC50,[32],5.08 µM (active)
same,IC50,[33],50 µM (inactive)
Cc1ccc(-c2nnn3c2nc(NCCc2ccc(S(N)(=O)=O)cc2)c2ccccc23)cc1,IC50,[34],0.819 µM (active)
same,IC50,[18],77.4 µM (active)
same,IC50,[35],0.783 µM (active)
same,IC50,[22],> 100 µM (inactive)
same,IC50,[26],17.7 µM (active)
O=C(Nc1ccc2nc(-c3ccco3)c(-c3ccco3)nc2c1)NC1CCCC1,IC50,[36],1.1 µM (active)
